Columns and labels:
human CYP24A1 = human CYP24A1 (Homo sapiens, UniProt Q07973); assay type: in vitro ADME; conditions: pH 7.4
[1] = test system: ED-71 O-dehydroxypropylation activity in human small intestine microsomes; assay type: in vitro ADME; conditions: 1 μmol/L ketoconazole

Compound | Relative kcat/Km (human CYP24A1) | ED-71 O-dehydroxypropylation activity reduced to (remaining activity) [1] [%]
C=C1/C(=C\C=C2/CCC[C@]3(C)[C@@H]([C@H](C)CCCC(C)(C)O)CC[C@@H]23)C[C@@H](O)C[C@@H]1O [1α,25(OH)2D3, 1α,25-dihydroxyvitamin D3] | 1 | 
CC(=O)N1CCN(c2ccc(OCC3COC(Cn4ccnc4)(c4ccc(Cl)cc4Cl)O3)cc2)CC1 (centres unmarked) [ketoconazole] |  | 37
